The source of these data is PubChem BioAssay (NCI).

Test systems include BT-549 breast; MCF7 breast; MDA-N; MDA-MB-435; PC-3 prostate; NCI/ADR-RES ovarian; RXF-631 renal; KM20L2 colon; HOP-18 NSCLC; DLD-1 colon.
Holding throughout (experiment): growth of human tumour cells (NCI), 48 h

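96-well plates; 48 h exposure; 5 concentrations. Endpoints by linear interpolation between flanking doses. Not reached: highest tested concentration assigned. At the GI50, growth is halved. Definition used: TGI = concentration required for complete inhibition of growth.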 The source made the active and inactive calls. No stated cut-off is given here; in the data, active means GI50 below about 0.43 µM; inactive means the rest. A value given as a limit tells only on which side of the number the result lay.

For `CCN1CSC(=S)N(CC)C1`, the TGI in the experiment with BT-549 breast, in the experiment on MCF7 breast, with MDA-N, in the experiment with MDA-MB-435, in the experiment on PC-3 prostate and with NCI/ADR-RES ovarian was greater than 100 µM each time.
Take `CCOC(=O)C(=O)Nc1c(C(C)C)cccc1C(C)C`: the TGI in the experiment with RXF-631 renal, with KM20L2 colon, in the experiment with HOP-18 NSCLC and with DLD-1 colon was greater than 100 µM throughout.
`Cc1c2cc[n+](C)cc2c(C)c2c1[nH]c1ccc(O)c(OCC(F)(F)F)c12`: the TGI in the experiment with RXF-631 renal was 15.4 µM; in the experiment with KM20L2 colon it was greater than 55 µM; in the experiment with DLD-1 colon, 44.4 µM.
Consider `C1=CC=C2NCCOCCNC3=CC=CC=CC3=NCCOCCN=C2C=C1`, for which the TGI in the experiment on RXF-631 renal was greater than 100 µM; in the experiment on KM20L2 colon, 79.3 µM; with HOP-18 NSCLC, greater than 100 µM; in the experiment on DLD-1 colon, greater than 100 µM.
Consider `CC(C)Oc1cc(O)c2c(c1)OCC=C2CCC(=O)O`, for which the TGI with BT-549 breast is greater than 100 µM; in the experiment with MCF7 breast it was 40.2 µM; with MDA-N, 54.7 µM; in the experiment on MDA-MB-435 it was 66 µM; in the experiment on PC-3 prostate, greater than 100 µM; in the experiment on NCI/ADR-RES ovarian, greater than 100 µM.
As for `O=C(O)CSc1ncccc1[N+](=O)[O-]`, the TGI in the experiment with BT-549 breast, in the experiment with MCF7 breast, in the experiment with MDA-N, in the experiment with MDA-MB-435, in the experiment on PC-3 prostate and in the experiment with NCI/ADR-RES ovarian was greater than 100 µM in each case.
Consider `CC(=O)O[C@@H]1C2C(=O)OC(=O)C2C2CCC[C@]23O[C@H]13` (stereo not given in full), for which the TGI in the experiment with KM20L2 colon, with HOP-18 NSCLC and in the experiment with DLD-1 colon was greater than 100 µM in each case.
Regarding `C=C=C(C(=O)OC)S(=O)c1ccc([N+](=O)[O-])cc1[N+](=O)[O-]` (stereo not given), the TGI in the experiment with RXF-631 renal was greater than 69.7 µM; in the experiment on KM20L2 colon, 63.8 µM; in the experiment with HOP-18 NSCLC, 98.7 µM; in the experiment on DLD-1 colon, 29.7 µM.
On to `O=C1CCC(O)=C1O`, for which the TGI in the experiment on RXF-631 renal, in the experiment with KM20L2 colon, in the experiment on HOP-18 NSCLC and with DLD-1 colon was greater than 100 µM each time.
On to `Cc1cc(=O)oc2cc(O)c(CN(C)CC(=O)O)cc12`, for which the TGI in the experiment with BT-549 breast, with MCF7 breast, in the experiment on MDA-N, with MDA-MB-435, with PC-3 prostate and in the experiment with NCI/ADR-RES ovarian was greater than 100 µM in each case.
Consider `Nc1nc(CCC(=O)Nc2cccc(C(F)(F)F)c2)cc(-c2ccc3ccccc3c2)n1`, for which the TGI with KM20L2 colon, in the experiment on HOP-18 NSCLC and in the experiment with DLD-1 colon was greater than 100 µM each time.
Consider `CCOC(=O)COS(=O)(=O)C(F)(F)F`, for which the TGI in the experiment on RXF-631 renal, in the experiment on KM20L2 colon, in the experiment with HOP-18 NSCLC and with DLD-1 colon was greater than 100 µM throughout.
On to `Fc1cccc(Cl)c1/C=N\N=C1c2ccccc2-c2ccccc21`, for which the TGI with BT-549 breast, with MCF7 breast, with MDA-N, with MDA-MB-435, in the experiment with PC-3 prostate and in the experiment on NCI/ADR-RES ovarian was greater than 100 µM each time.
`CC1CCN(CC(=O)N2c3ccccc3Sc3cc4ccccc4cc32)CC1`: the TGI in the experiment with BT-549 breast, with MCF7 breast, in the experiment with MDA-N, with MDA-MB-435, in the experiment on PC-3 prostate and in the experiment on NCI/ADR-RES ovarian was greater than 100 µM in each case.
`Cc1nn(-c2ccccc2)c(-c2ccccc2[N+](=O)[O-])c1CC#N`: the TGI in the experiment with RXF-631 renal and in the experiment with KM20L2 colon was greater than 100 µM each time.
As to `COc1cc(Br)c(C=Nc2cccc3ccc(OS(=O)(=O)c4cccc([N+](=O)[O-])c4)cc23)cc1OC`, the TGI with HOP-18 NSCLC and in the experiment on DLD-1 colon was greater than 100 µM throughout.
For the compound `CC(=O)OC1[C@H]2c3cc4c(cc3CN3CCC(=C[C@@H]1O)C23)OCO4` (stereo not given in full), the TGI in the experiment with KM20L2 colon and in the experiment on DLD-1 colon was greater than 100 µM throughout.
For `COC(=O)c1nc(N)[nH]c(=O)c1CCCCCc1c(C(=O)OC)nc(N)[nH]c1=O`, the TGI in the experiment on RXF-631 renal, in the experiment with KM20L2 colon, in the experiment on HOP-18 NSCLC and in the experiment on DLD-1 colon was greater than 50 µM each time.
On to `COC(=O)c1c(-c2ccccc2)sc(-c2cccc3ccccc23)c1C(=O)OC`, for which the TGI in the experiment with KM20L2 colon, with HOP-18 NSCLC and in the experiment with DLD-1 colon was greater than 100 µM each time.
For `CCOc1ccccc1NC(=O)CCc1nc(=S)[nH][nH]1`, the TGI in the experiment with RXF-631 renal, with HOP-18 NSCLC and in the experiment with DLD-1 colon was greater than 100 µM in each case.
As for `O=[N+]([O-])c1ccc2c(c1)[O][Sn][O]2`, the result in the experiment with KM20L2 colon and with HOP-18 NSCLC was inactive.
Consider `S=c1nc(-c2cccnc2)[nH][nH]1`, for which the TGI in the experiment on KM20L2 colon, in the experiment on HOP-18 NSCLC and in the experiment with DLD-1 colon was greater than 100 µM each time.
As for `C=C1C(=O)OC2/C=C(\C=O)CC/C=C(\C)C(O)C[C@@H]12` (stereo not given in full), the TGI with KM20L2 colon turned out to be 22.4 µM; in the experiment with HOP-18 NSCLC, 31.2 µM; in the experiment on DLD-1 colon, 8.93 µM.
With `BrC1(Br)C2/C=C\CCCCC21` (stereo not given), the TGI with KM20L2 colon and in the experiment on HOP-18 NSCLC was greater than 100 µM in each case.
Take `C[C-](O)O.O/C(=C\[C-](O)c1ccccc1)c1ccccc1.O/C(=C\[C-](O)c1ccccc1)c1ccccc1.[Nd+3]` (stereo not given): in the experiment on KM20L2 colon, the GI50 is 5.76 µM and the TGI came to 21 µM. In the experiment on DLD-1 colon, the GI50 is 9.17 µM and the TGI stood at 44.2 µM.
Regarding `N#CC(NNC(=O)c1ccccc1O)c1cccc(O)c1` (stereo not given), the TGI with KM20L2 colon, in the experiment with HOP-18 NSCLC and in the experiment on DLD-1 colon was greater than 100 µM each time.
In the case of `O=C(OC[C@H]1O[C@@H](OC(=O)c2cc(O)c(O)c(O)c2)[C@H](OC(=O)c2cc(O)c(O)c(O)c2)[C@@H](OC(=O)c2cc(O)c(O)c(O)c2)[C@@H]1OC(=O)c1cc(O)c(O)c(O)c1)c1cc(O)c(O)c(O)c1`, the TGI with KM20L2 colon is greater than 100 µM; in the experiment on HOP-18 NSCLC, greater than 100 µM; with DLD-1 colon, 22.5 µM.
Consider `C[N+]1(C)C/C(=C\c2ccncc2)C(=O)/C(=C/c2ccncc2)C1`, for which the TGI in the experiment on KM20L2 colon, in the experiment on HOP-18 NSCLC and in the experiment with DLD-1 colon was greater than 100 µM each time.
Take `O=C1c2ccccc2-n2c1nc1ccccc1c2=O`: the TGI is 45.4 µM in the experiment with BT-549 breast; 25.2 µM with MCF7 breast; 32.4 µM in the experiment with MDA-N; 3.44 µM with MDA-MB-435; greater than 60.1 µM in the experiment on PC-3 prostate; greater than 100 µM in the experiment on NCI/ADR-RES ovarian.
